Measurements: a compilation of properties of binary mixtures (doi:10.1016/j.molliq.2020.113380)

Experiment: xn = mol fraction of the nth substance listed
Settings: 86 kPa, x2 = 0.5

O=C(O)COCC(=O)O + CCCC[N+](CCCC)(CCCC)CCCC.O=S(=O)([O-])O
Settings	electrical conductivity [S/m]	speed of sound [m/s]	viscosity [mPa·s]
293.15 K	0.0002	1820.2	–
298.15 K	0.0004	1770.7	–
303.15 K	0.0007	1720.3	38300
308.15 K	0.0013	1690.7	21200
313.15 K	0.0022	1661.5	12020
318.15 K	0.0035	1630.3	7750
323.15 K	0.0054	1603.6	5450
328.15 K	0.0081	1581	3520
333.15 K	0.0117	1560.2	2500
338.15 K	–	–	1750
343.15 K	–	–	1250
